Test results taken from patent US11466286B2, “Methods and compositions for conferring and/or enhancing herbicide tolerance using protoporphyrinogen oxidase or variant thereof” (FarmHannong Co., Ltd., priority 2016, dated 2022).
pIC50: −log10 of the molar value.

Key:
[1] = tested on: PPO-deficient BT3 E. coli (ΔPPO) with CyPPO10 wild type (Cy10 WT, SEQ ID NO: 2); assay: Growth of transformed BT3 (ΔPPO) on tiafenacil media; type: cell-based
Procedure: (§1) After transforming PPO-deficient BT3 E. coli (ΔPPO) with CyPPO10 or CyPPO13, the transformed BT3 (ΔPPO) was cultured on LB agar plates containing PPO-inhibiting herbicide to examine the growth level of the transformed BT3 (ΔPPO). BT3 (ΔPPO) strain was obtained from Hokkaido University (Japan). The BT3 (ΔPPO) strain is deficient in hemG-type PPO and has kanamycin tolerance (refer to “Watanabe et al., Dual targeting of spinach protoporphyrinogen oxidase II to mitochondria and chloroplasts by alternative use of two in-frame […], JBC 2001 276(23):20474-20481; Che et al., Molecular Characterization and Subcellular Localization of Protoporphyrinogen Oxidase in Spinach Chloroplasts, Plant Physiol. 2000 September; 124(1):59-70”).
(§2) CyPPO10 and CyPPO13 genes were cloned in pACBB vector (Plasmid #32551; Addgene; refer to FIG. 1).
(§3) For seed culture of E. coli transformed with respective genes, each single colony of E. coli transformant as provided above was cultured in 3 ml of LB broth containing chloramphenicol overnight (220 rpm, 37° C.), and 50 to 100 μl were subcultured in a new 3 ml of LB broth, and they were cultured until absorbance (OD600) became 0.5 to 1, and they were diluted with LB broth to absorbance (OD600) of 0.5. The diluted solution was serially diluted again 5 times by a factor of one tenth with LB broth. […] The LB Agar media were incubated at 37° C., under light condition, and level of inhibiting growth was observed after 16 to 20 hours of incubation.

[2] = tested on: PPO-deficient BT3 E. coli (ΔPPO) with CyPPO13 wild type (Cy13 WT, SEQ ID NO: 4); assay: as above; type: cell-based
Procedure: as §1, §2, §3

[3] = tested on: CyPPO13 (Synechococcus sp. JA-3-3Ab PPO, SEQ ID NO: 4) variant F373L, MBP fusion; assay: PPO inhibition assay; type: biochemical; details: herbicide 0-5,000 nM, 50 μM substrate
Procedure: (§4) The enzyme activities of PPO protein and PPO protein variants were examined, and inhibition assay by PPO-inhibiting herbicides was conducted. It was confirmed that the PPO protein has low water-solubility, but in case of being expressed as a fusion protein with MBP (maltose binding protein) (MBP-PPO), the PPO protein is able to be stably expressed as water-soluble form. Therefore, the wild type and variant proteins which were expressed in the form of fusion protein with MBP were used in the present test (refer to FIG. 4).
(§5) At first, a substrate of PPO protein, Protoporphyrinogen IX was synthesized. This process was performed in the space where nitrogen gas is streamed. 6 mg of protoporphyrin IX was dissolved in 20% (v/v) EtOH 20 ml, and stirred under dark condition for 30 minutes. The obtained protoporphyrinogen IX solution was put into a 15 ml screw tube in an amount of 800 and flushed with nitrogen gas for 5 minutes. To this, 1 g of sodium amalgam was added and vigorous shaking was performed for 2 minutes. The lid was open to exhaust hydrogen gas in the tube. Thereafter, the lid was closed and incubated for 3 minutes. The […] was filtered using syringe and cellulose membrane filter. To 600 μl of the obtained […], 2M MOPS [3-(N-morpholino)propanesulfonic acid] was added in an amount of approximately 300 thereby adjusting pH to 8.0. To determine the enzyme activity of PPO protein, a reaction mixture was prepared with the following composition (based on 10 ml): 50 mM Tris-Cl (pH 8.0); 50 mM NaCl; 0.04% (v/v) Tween 20; 40 mM glucose (0.072 g); 5 units glucose oxidase (16.6 mg); and 10 units catalase (1 μl).
(§6) Two hundred microliters (200 μl) of reaction mixture containing a purified PPO protein were placed in 96 well plates, and preincubated for 30 min at room temperature to reduce the oxygen concentration by the reaction of glucose oxidase-catalase. The mineral oil was layered and then the reaction was initiated by adding the substrate, […], to a final concentration of 50 μM. The reaction proceeded at room temperature for 30 min and the fluorescence of protoporphyrin IX was measured using Microplate reader (Sense, Hidex) (excitation: 405 nm; emission: 633 nm). To calculate the PPO enzyme activity, protoporphyrinogen IX solution was kept open in the air to oxidize the solution (overnight). To this, 2.7N HCl was added, and the absorbance at 408 nm was measured. A standard curve was generated using standard protoporphyrin IX, and the PPO activity was measured by calibration of protoporphyrin IX using the standard curve of protoporphyrin IX.
(§7) The final concentration of each herbicide was as follows: […]

[4] = tested on: CyPPO13 (Synechococcus sp. JA-3-3Ab PPO, SEQ ID NO: 4) variant F373T, MBP fusion; assay: PPO inhibition assay; type: biochemical; details: herbicide 0-5,000 nM, 50 μM substrate
Procedure: as §4, §5, §6, §7

[5] = tested on: CyPPO13 (Synechococcus sp. JA-3-3Ab PPO, SEQ ID NO: 4) variant F373V, MBP fusion; assay: PPO inhibition assay; type: biochemical; details: herbicide 0-5,000 nM, 50 μM substrate
Procedure: as §4, §5, §6, §7

[6] = tested on: CyPPO13 (Synechococcus sp. JA-3-3Ab PPO, SEQ ID NO: 4) variant F373N, MBP fusion; assay: PPO inhibition assay; type: biochemical; details: herbicide 0-5,000 nM, 50 μM substrate
Procedure: as §4, §5, §6, §7

[7] = tested on: BT3 (ΔPPO) E. coli with CyPPO10m-6 (E225G, G258S, Q266L, T336I, V356F, F360M, A364D, R406G, W419R; SEQ ID NO: 131); assay: Growth of BT3 with error-prone PCR mutant of CyPPO10; type: cell-based; details: up to 200 μM herbicide

With `COC(=O)CCNC(=O)C(C)Sc1cc(-n2c(=O)cc(C(F)(F)F)n(C)c2=O)c(F)cc1Cl` (stereo not drawn) [Tiafenacil] the growth ([1]; 100 μM tiafenacil) was “at the similar level to that of the medium containing no tiafenacil”, the growth ([1]; 400 μM tiafenacil) was “grew well” and the growth ([2]; 100 μM tiafenacil) was “at the similar level to that of the medium containing no tiafenacil”. For the same compound, the growth ([2]; 400 μM tiafenacil) was “grew well”, the pIC50 [3] was 6.85 and the pIC50 [4] was 6.09. For the same compound, the pIC50 [5] was 6.47, the pIC50 [6] was 7.40 and the cell viability [7] was “cell viability similar to that of cells with wild type CyPPO10”.
